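Following 48 hours of exposure in 96-well plates, responses at five concentrations were used to interpolate endpoints linearly. Here, GI50 denotes the concentration required for 50% inhibition of growth.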 Active and inactive are the calls of the source. Rule as the data show it: active = GI50 up to about 1.1 µM and inactive = higher.
Assays:
Experiment in all cases: growth of human tumour cells (NCI), 48 h
EKVX = test system: EKVX
SNB-75 = test system: SNB-75
U-251 = test system: U-251
UO-31 = test system: UO-31
SN12C = test system: SN12C
HCC 2998 = test system: HCC 2998
SF-295 = test system: SF-295
MDA-N = test system: MDA-N
SK-MEL-28 = test system: SK-MEL-28
LOX IMVI = test system: LOX IMVI
T47D = test system: T47D
HT-29 = test system: HT-29
KM12 = test system: KM12
RXF 393 = test system: RXF 393
NCI-H226 = test system: NCI-H226
A549 = test system: A549
CAKI-1 = test system: CAKI-1
Malme-3M = test system: Malme-3M
SF-539 = test system: SF-539
SK-MEL-2 = test system: SK-MEL-2

Measured: GI50

CCOC(=O)c1ccc(Nc2nc3cc(C(F)(F)F)ccc3nc2-c2ccccc2)cc1
inactive: EKVX 49.8 µM | SNB-75 13.5 µM | U-251 21.9 µM | UO-31 > 100 µM | SN12C 86.1 µM | HCC 2998 22.8 µM | SF-295 26.7 µM | MDA-N > 100 µM | SK-MEL-28 > 100 µM | LOX IMVI > 100 µM | T47D 35.7 µM | HT-29 > 10 µM | KM12 28.4 µM | RXF 393 21.4 µM | NCI-H226 > 100 µM | A549 > 100 µM | CAKI-1 42.9 µM | Malme-3M > 100 µM | SF-539 65.5 µM

O=C1C(O)=C(CC=C(Cl)Cl)C(=O)c2ccccc21
inactive: EKVX 42.3 µM | SNB-75 50.6 µM | U-251 2.62 µM | UO-31 20.7 µM | SN12C 12.9 µM | HCC 2998 28 µM | SK-MEL-2 17.7 µM | MDA-N 16.4 µM | SK-MEL-28 23.4 µM | LOX IMVI 2.23 µM | T47D 38.5 µM | HT-29 4.6 µM | KM12 6.46 µM | RXF 393 28.7 µM | A549 4.44 µM | CAKI-1 23.1 µM | Malme-3M 10.8 µM | SF-539 10 µM

CCOc1cc(-c2nc3cc(F)ccc3s2)ccc1O
inactive: EKVX 10.8 µM | U-251 19.5 µM | UO-31 12.9 µM | SN12C 19.1 µM | HCC 2998 26 µM | SK-MEL-2 17.2 µM | SF-295 20 µM | MDA-N 15.8 µM | SK-MEL-28 27.6 µM | LOX IMVI 16 µM | T47D 11.6 µM | HT-29 18.1 µM | KM12 17 µM | RXF 393 18.6 µM | NCI-H226 17 µM | A549 17.9 µM | CAKI-1 16.9 µM | Malme-3M 15.3 µM | SF-539 18.8 µM

CC(C)(C)c1ccc(-c2nc3ccc([N+](=O)[O-])cc3c(=O)o2)cc1
inactive: EKVX 25.4 µM | SNB-75 24.9 µM | U-251 15 µM | UO-31 32.9 µM | SN12C 40.1 µM | HCC 2998 12.9 µM | SK-MEL-2 20.7 µM | SF-295 20.8 µM | MDA-N 31.6 µM | SK-MEL-28 34.4 µM | LOX IMVI 15.3 µM | T47D 40.5 µM | HT-29 24.7 µM | KM12 20 µM | RXF 393 42.6 µM | A549 28.9 µM | CAKI-1 50.4 µM | Malme-3M 28.9 µM | SF-539 17.1 µM

N#Cc1ccc(-c2nc3cc(Cl)ccc3[nH]2)cc1
inactive: EKVX 23.1 µM | SNB-75 > 100 µM | U-251 61.9 µM | UO-31 27.6 µM | SN12C 51.1 µM | HCC 2998 38.1 µM | SK-MEL-2 > 100 µM | SF-295 44.6 µM | MDA-N 49.1 µM | T47D 35.6 µM | HT-29 48.2 µM | KM12 25.3 µM | RXF 393 > 100 µM | NCI-H226 99.5 µM | A549 38.3 µM | CAKI-1 54.2 µM | SF-539 > 100 µM

CCOC(=O)c1c(N)sc2c1C(C(=O)OCC)CCCC2 (stereo not drawn)
inactive: EKVX 85.3 µM | SNB-75 > 100 µM | U-251 66.5 µM | UO-31 37.6 µM | SN12C 91 µM | HCC 2998 76.9 µM | SK-MEL-2 94.4 µM | MDA-N 69.5 µM | SK-MEL-28 > 100 µM | T47D 22.5 µM | HT-29 > 100 µM | KM12 > 100 µM | RXF 393 17.3 µM | NCI-H226 > 100 µM | A549 88.9 µM | Malme-3M > 100 µM

O=S(=O)(/N=C(\NO)Nc1ccc(Cl)cc1)C1CC=C(c2ccon2)S1 (stereo not drawn)
inactive: EKVX 31 µM | U-251 15.8 µM | UO-31 9.55 µM | SN12C 18.2 µM | HCC 2998 15.3 µM | SK-MEL-2 13.3 µM | SF-295 40.7 µM | MDA-N 6.04 µM | SK-MEL-28 23.5 µM | LOX IMVI 21 µM | T47D 12.5 µM | HT-29 42.7 µM | KM12 46.5 µM | RXF 393 6.31 µM | NCI-H226 13.4 µM | A549 32.1 µM | CAKI-1 2.39 µM | Malme-3M 1.55 µM | SF-539 1.2 µM

Cc1ccc2c(c1)C(=O)C1(C2)Cc2c(C)cccc2C1=O (stereo not drawn)
inactive: EKVX > 100 µM | SNB-75 > 100 µM | U-251 > 100 µM | UO-31 > 100 µM | SN12C > 100 µM | HCC 2998 > 100 µM | SF-295 > 100 µM | MDA-N > 100 µM | SK-MEL-28 > 100 µM | LOX IMVI > 100 µM | T47D > 100 µM | HT-29 > 100 µM | KM12 > 100 µM | RXF 393 > 100 µM | NCI-H226 > 100 µM | A549 > 100 µM | CAKI-1 > 100 µM | Malme-3M > 100 µM | SF-539 > 100 µM

Cc1ccc(Nc2nnc3n2S(=O)(=O)c2cc(C)c(Cl)cc2S3)cc1
inactive: EKVX 25.4 µM | SNB-75 6.93 µM | U-251 4.66 µM | UO-31 17.3 µM | HCC 2998 18.2 µM | SK-MEL-2 3.91 µM | SF-295 3.22 µM | MDA-N 1.7 µM | SK-MEL-28 19.6 µM | LOX IMVI 6.14 µM | T47D 17.7 µM | HT-29 10.3 µM | KM12 6.56 µM | RXF 393 10.5 µM | NCI-H226 10.7 µM | A549 8.39 µM | CAKI-1 23 µM | SF-539 3.77 µM

CCOC(=O)c1nc2ccc(C(F)(F)F)cc2nc1Oc1ccc(OC)cc1
inactive: EKVX 55.2 µM | SNB-75 > 100 µM | U-251 > 100 µM | UO-31 > 100 µM | SN12C > 100 µM | SK-MEL-2 > 100 µM | SF-295 > 100 µM | MDA-N > 100 µM | SK-MEL-28 > 100 µM | LOX IMVI > 100 µM | T47D > 100 µM | HT-29 > 100 µM | KM12 > 100 µM | RXF 393 > 100 µM | NCI-H226 > 100 µM | A549 > 100 µM | CAKI-1 9.42 µM | Malme-3M 62.8 µM | SF-539 > 100 µM

CCOC(=O)C1=CNC(C(=O)OCC)C1c1cccn1-c1ccc(Cl)cc1[N+](=O)[O-] (stereo not drawn)
inactive: EKVX 17.9 µM | SNB-75 17.4 µM | U-251 20.7 µM | UO-31 22.9 µM | SN12C 18.2 µM | HCC 2998 16.3 µM | SK-MEL-2 15.4 µM | SF-295 16.4 µM | MDA-N 22 µM | SK-MEL-28 26.2 µM | LOX IMVI 15.9 µM | T47D 24.2 µM | HT-29 16.1 µM | KM12 20.2 µM | RXF 393 14.6 µM | NCI-H226 20.1 µM | A549 32.1 µM | CAKI-1 20 µM | SF-539 16.6 µM

O=C(O)c1cccc(SSc2cccc(C(=O)O)c2)c1
inactive: EKVX > 100 µM | SNB-75 > 100 µM | U-251 > 100 µM | UO-31 > 100 µM | SN12C > 100 µM | SK-MEL-2 > 100 µM | SF-295 > 100 µM | MDA-N > 100 µM | SK-MEL-28 > 100 µM | LOX IMVI > 100 µM | T47D > 100 µM | HT-29 > 100 µM | KM12 > 100 µM | RXF 393 > 100 µM | NCI-H226 > 100 µM | A549 > 100 µM | CAKI-1 > 100 µM | Malme-3M > 100 µM | SF-539 > 100 µM

CCCCc1ccc(Nc2nc3c(ncn3C3CC(O)C(CN=[N+]=[N-])O3)c(=O)[nH]2)cc1 (stereo not drawn)
inactive: EKVX > 100 µM | SNB-75 > 100 µM | U-251 > 100 µM | UO-31 > 100 µM | SN12C > 100 µM | HCC 2998 > 100 µM | SK-MEL-2 > 100 µM | SF-295 > 100 µM | MDA-N > 100 µM | SK-MEL-28 > 100 µM | LOX IMVI > 100 µM | T47D 54.7 µM | HT-29 > 100 µM | KM12 > 100 µM | RXF 393 > 100 µM | NCI-H226 > 100 µM | A549 > 100 µM | CAKI-1 > 100 µM | Malme-3M > 100 µM

C(/Cc1ccc2c(c1)OCO2)=N\N=C1NCCCN1
inactive: EKVX 48.9 µM | SNB-75 15.2 µM | U-251 75.7 µM | UO-31 38.2 µM | SN12C 54.3 µM | HCC 2998 41.7 µM | SK-MEL-2 > 100 µM | SF-295 38.2 µM | MDA-N > 100 µM | SK-MEL-28 > 100 µM | LOX IMVI 29.4 µM | T47D 19.5 µM | HT-29 65.5 µM | KM12 > 100 µM | RXF 393 42.9 µM | NCI-H226 > 100 µM | A549 36.7 µM | Malme-3M 64.4 µM | SF-539 50.5 µM

CC(C)(N)C(=O)N[C@@H]1C(=O)N2[C@@H]1SC(C)(C)[C@@H]2C(=O)O
inactive: EKVX > 100 µM | SNB-75 > 100 µM | U-251 > 100 µM | UO-31 > 100 µM | SN12C > 100 µM | SK-MEL-2 > 100 µM | SF-295 > 100 µM | MDA-N > 100 µM | SK-MEL-28 > 100 µM | LOX IMVI > 100 µM | T47D > 100 µM | HT-29 > 100 µM | KM12 > 100 µM | RXF 393 > 100 µM | NCI-H226 > 100 µM | A549 > 100 µM | CAKI-1 > 100 µM | Malme-3M > 100 µM | SF-539 > 100 µM
